Data from patent EP4768487A1, “FUSED LACTAM RING COMPOUND AND USE THEREOF” (Chengdu Zenitar Biomedical Technology Co., Ltd., priority 2023, dated 2025).
Like-named read-outs stand apart in the source and are kept apart here.

Key:
[1] = tested on: BRCA-mutated MDA-MB-436 cells; test: Anti-proliferative activity against cells (CCK8): MDA-MB-436; type: cell-based; details: Homo sapiens, 72 h + 96 h culture
[2] = tested on: BRCA wild-type DLD-1 cells; test: Anti-proliferative activity against cells (CCK8): DLD-1; type: cell-based; details: Homo sapiens, 72 h + 96 h culture
Method in brief: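 DLD-1 cells (1000/well) in RPMI-1640 with 10% FBS, treated 24 h after plating with PARPi at 0, 1 or 10 µM final. Cultured 72 h, medium exchanged with re-added PARPi, then a further 96 h; read-out by CCK8.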

[3] = tested on: CD34+ hematopoietic stem and progenitor cells (hmPB34-P-SC); test: Hematological toxicity assay (CellTiter-Glo 2.0); type: cell-based; details: 120 h; 5 days of culture
Procedure: The next day, the cells were resuspended and seeded in a 96-well plate at a concentration of 1000 cells/well, and meanwhile, different concentrations of the drug were added for treatment, with 3 replicate wells set for each concentration. After 5 days of culture, the number of viable cells in each well was determined using a CellTiter-Glo 2.0 kit, followed by detection by a microplate reader.

PARP1 = target: T1, PARP1 (Homo sapiens, UniProt P09874); test: PARP1 enzyme assay (histone-coated plate, chemiluminescence); type: biochemical; details: PARP1 0.02 nM, DNA 0.8 nM, NAD+ 3.5 µM; read-out: PARP-1 IC50
T1 construct: purchased BPS 80501
T1 sequence (P09874 whole entry): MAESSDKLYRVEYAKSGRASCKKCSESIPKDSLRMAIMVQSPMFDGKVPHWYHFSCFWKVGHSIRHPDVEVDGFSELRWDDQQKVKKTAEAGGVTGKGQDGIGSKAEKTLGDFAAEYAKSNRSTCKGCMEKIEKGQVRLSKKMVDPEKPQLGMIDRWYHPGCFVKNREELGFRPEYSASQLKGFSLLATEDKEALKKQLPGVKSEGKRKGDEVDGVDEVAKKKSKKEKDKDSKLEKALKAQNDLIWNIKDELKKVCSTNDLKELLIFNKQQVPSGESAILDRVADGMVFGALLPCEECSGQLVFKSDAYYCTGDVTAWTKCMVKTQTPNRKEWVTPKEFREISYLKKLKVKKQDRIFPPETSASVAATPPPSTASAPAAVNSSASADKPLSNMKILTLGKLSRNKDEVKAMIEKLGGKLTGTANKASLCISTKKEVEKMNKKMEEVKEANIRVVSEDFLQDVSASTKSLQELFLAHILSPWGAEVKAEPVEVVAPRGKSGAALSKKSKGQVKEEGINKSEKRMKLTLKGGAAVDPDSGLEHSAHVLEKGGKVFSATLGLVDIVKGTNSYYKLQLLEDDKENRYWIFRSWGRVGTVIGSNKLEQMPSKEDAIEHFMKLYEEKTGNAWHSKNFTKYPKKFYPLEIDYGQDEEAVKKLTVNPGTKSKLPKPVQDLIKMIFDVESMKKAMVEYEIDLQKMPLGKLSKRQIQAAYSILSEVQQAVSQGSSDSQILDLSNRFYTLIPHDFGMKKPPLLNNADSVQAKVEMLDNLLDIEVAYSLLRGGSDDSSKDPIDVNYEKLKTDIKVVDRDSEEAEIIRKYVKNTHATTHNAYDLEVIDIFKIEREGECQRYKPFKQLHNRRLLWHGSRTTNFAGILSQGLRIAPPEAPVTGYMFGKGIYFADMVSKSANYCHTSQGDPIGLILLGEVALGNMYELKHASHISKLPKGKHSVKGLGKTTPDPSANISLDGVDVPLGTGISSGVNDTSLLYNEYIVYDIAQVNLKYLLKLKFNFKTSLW

[4] = target: T2, hERG potassium ion channel (Homo sapiens, UniProt Q12809); test: Inhibition of hERG potassium ion channel (Qpatch, CHO cells stably expressing hERG); type: cell-based; details: for inhibitory effects on the hERG potassium ion channel (in words): conclusion of Table 17; for inhibition at 2.5 min, 20 µM: human, CHO cells stably expressing hERG, read-out: Inhibition rate at 20 µM
T2 construct: expressed in transfected cells; host or cells: CHO cells
T2 sequence (Q12809 whole entry): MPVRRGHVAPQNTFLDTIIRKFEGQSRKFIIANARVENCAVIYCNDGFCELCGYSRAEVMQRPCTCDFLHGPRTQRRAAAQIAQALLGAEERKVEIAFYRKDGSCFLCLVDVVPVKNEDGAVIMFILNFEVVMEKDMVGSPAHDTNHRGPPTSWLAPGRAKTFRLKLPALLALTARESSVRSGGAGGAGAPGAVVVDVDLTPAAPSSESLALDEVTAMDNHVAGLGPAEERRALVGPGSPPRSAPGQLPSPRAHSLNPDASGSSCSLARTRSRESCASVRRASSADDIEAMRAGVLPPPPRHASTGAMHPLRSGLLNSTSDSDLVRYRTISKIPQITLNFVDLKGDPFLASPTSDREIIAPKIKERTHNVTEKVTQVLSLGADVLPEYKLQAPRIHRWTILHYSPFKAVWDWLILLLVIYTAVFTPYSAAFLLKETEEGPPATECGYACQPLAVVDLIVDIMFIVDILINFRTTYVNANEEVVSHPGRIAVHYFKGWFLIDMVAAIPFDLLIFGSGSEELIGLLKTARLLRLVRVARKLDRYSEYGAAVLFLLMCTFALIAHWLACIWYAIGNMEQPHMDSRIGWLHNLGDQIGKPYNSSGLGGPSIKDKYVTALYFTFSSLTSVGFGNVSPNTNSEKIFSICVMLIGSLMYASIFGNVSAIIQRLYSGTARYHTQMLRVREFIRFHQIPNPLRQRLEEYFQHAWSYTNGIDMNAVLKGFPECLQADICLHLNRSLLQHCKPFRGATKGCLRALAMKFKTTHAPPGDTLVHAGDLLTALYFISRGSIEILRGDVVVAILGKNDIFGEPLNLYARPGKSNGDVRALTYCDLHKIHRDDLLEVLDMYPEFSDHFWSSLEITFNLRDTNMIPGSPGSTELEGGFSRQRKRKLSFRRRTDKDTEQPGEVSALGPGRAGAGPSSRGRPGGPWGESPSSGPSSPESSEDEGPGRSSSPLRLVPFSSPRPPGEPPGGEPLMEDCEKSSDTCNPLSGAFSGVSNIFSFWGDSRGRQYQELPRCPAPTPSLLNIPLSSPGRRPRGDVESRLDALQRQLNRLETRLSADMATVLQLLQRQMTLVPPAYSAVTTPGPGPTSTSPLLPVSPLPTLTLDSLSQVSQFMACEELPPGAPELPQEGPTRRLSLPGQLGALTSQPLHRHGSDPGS
Procedure: Cell culture and treatment: CHO cells stably expressing hERG were cultured in a cell culture flask and incubated in an incubator with 5% CO2 at 37 °C. When the cell density reached 60%-80%, the cell culture medium was removed by pipetting. The cells were washed once with PBS, and then Detachin was added for detachment. After complete detachment, a culture medium was added for neutralization. The cells were then centrifuged, and the supernatant was removed by pipetting. A culture medium was further added for resuspension, and the cell density was adjusted to (2-5) × 10^6 cells/mL for later use.
Compound preparation: The compound stock solution was diluted with 100% DMSO. Specifically, 10 µL of the compound stock solution was added to 20 µL of DMSO, followed by a 3-fold serial dilution to obtain 6 concentrations. 4 µL of each of the 6 compound solutions at different concentrations was taken and added to 396 µL of an extracellular fluid, resulting in a 100-fold dilution to obtain 6 intermediate concentrations. Then, 80 µL of each of the 6 intermediate-concentration compound solutions was taken and added to 320 µL of an extracellular fluid, resulting in a 5-fold dilution to achieve the final test concentrations. The highest test concentration was 40 µM. […] DMSO at this concentration has no effect on the hERG potassium channel. During the compound preparation, the entire dilution process was completed by a Bravo instrument.
Electrophysiological recording process: The single-cell high-impedance sealing and whole-cell mode formation processes were all completed automatically by a Qpatch instrument. After achieving the whole-cell recording mode, the cells were clamped at -80 mV. Before a 5-second +40 mV depolarizing stimulus was applied, a 50-millisecond -50 mV prepulse voltage was first applied. The potential was then repolarized to -50 mV and held for 5 s, and finally returned to -80 mV. This voltage stimulation was applied every 15 s. After 2 min of recording, the extracellular fluid was administered, followed by recording for 5 min. Then, the compound administration process began, starting from the lowest test compound concentration. Each test concentration was applied for 2.5 min. After all the concentrations were applied consecutively, the positive control compound, 3 µM Cisapride, was administered. At least 3 cells (n ≥ 3) were tested for each concentration.
Data processing: Data analysis and processing were performed using GraphPad Prism 5.0 and Excel software. The IC50 of the compound was calculated using GraphPad Prism 5 software by equation fitting as follows: Y = Bottom + (Top−Bottom)/(1+10^(∧)((LogIC50−X)*HillSLope)) [formula] where X is the Log value of the test concentration of the test sample, Y is the inhibition percentage at the corresponding concentration, and Bottom and Top are the minimum and maximum inhibition percentages, respectively. Table 17. Results of inhibition of hERG potassium ion channel by compounds

[5] = Pharmacokinetic evaluation in Balb/c mice; type: in vivo; details: 1mg/kg, PO
Procedure: Experimental objective: To understand the pharmacokinetic profiles of the compounds. Experimental basis: Technical guidelines for non-clinical pharmacokinetic studies of chemical drugs, 2014.
Experimental scheme: The pharmacokinetic profiles of the compounds were investigated by intravenous administration (1 mg·kg^-1) and intragastric administration (1 mg·kg^-1) in Balb/c mice.
Sample preparation: About 0.2 mg of the compound was weighed out and dissolved in 10 µL of DMSO, and then a sodium chloride solution for injection was added to prepare a 0.1 mg·mL^-1 compound solution for later administration.
Three of the mice were subjected to intravenous administration (IV) at 1 mg·kg^-1, while the other three were subjected to intragastric administration (PO) at 1 mg·kg^-1. About 0.05 mL of blood was collected at 5 min, 15 min, 30 min, 1 h, 2 h, 4 h, 6 h, 8 h, 10 h, 24 h, and 48 h after administration. The collected blood was centrifuged at 3500 rpm for 15 min. The supernatant plasma was then collected and cryopreserved at -40 °C for later analysis. The plasma concentration was quantitatively analyzed using the LC-MS/MS method, and pharmacokinetic parameters such as […] (Cmax), area under plasma concentration-time curve (AUC(0-t)), half-life (T1/2), clearance rate (CL), tissue distribution (Vdss), and bioavailability (F) were calculated. Table 18. Results of pharmacokinetic test of compounds in Balb/c mice

[6] = Cerebrospinal fluid and plasma distribution in vivo; details: rat, male rats, intravenous 5 mg/kg, n = 1
Procedure: Experimental procedures: The compound was weighed out, a small amount of DMSO was added, and then a sodium chloride solution for injection was added to prepare a 5 mg·mL^-1 compound solution for later administration. […] 10 µL of the plasma and 10 µL of the cerebrospinal fluid were each added to a centrifuge tube, and 40 µL of acetonitrile containing 20 ng·mL^-1 internal standard SAHA was added for precipitation. […] The supernatant was collected and transferred to a sample vial for later analysis. Range of standard curve: 1-1000 ng·mL^-1.

[7] = tested on: MDA-MB-436 breast cancer subcutaneous xenograft tumor model; test: In vivo pharmacodynamic study of compound 2 in MDA-MB-436 subcutaneous xenograft tumor model; details: 100 mg/kg, oral once daily, 30 days
Procedure: Experimental process: Twenty-four female NOD/SCID mice were used in the experiment. […] All groups were subjected to oral administration once daily. Meanwhile, the mice were weighed every 2 days, and the length and width of the tumors were measured with a vernier caliper. After 30 days of administration, the tumor-bearing mice were anesthetized and sacrificed. The tumor tissues were dissected, weighed, and photographed, and the tumor growth inhibition rates were calculated.

[8] = cerebrospinal fluid, read-out: Cerebrospinal fluid

| SMILES | IC50 [1] | IC50 [2] | IC50 [3] | IC50 (PARP1) | inhibitory effects on the hERG potassium ion channel (in words) [4] | inhibition at 2.5 min, 20 µM [4] | other results |
| --- | --- | --- | --- | --- | --- | --- | --- |
| CNC(=O)c1ccc(N2CCN(C[C@H]3CCc4nc(C)c(=O)[nH]c4C3)CC2)c(Cl)n1 [Example 106, (S)-6-Chloro-N-methyl-5-(4-((2-methyl-3-oxo-3,4,5,6,7,8-hexahydroquinoxalin-6-yl)methyl)piperazin-1-yl)picolinamide] | 6.5 nM | > 1000 nM | > 1000 nM | ≤ 50 nM | – | – | – |
| C=Cc1cc2c([nH]c1=O)CC(CN1CCN(c3ccc(C(=O)NC)nc3F)CC1)OC2 (stereo not shown) [Example 67, 6-Fluoro-N-methyl-5-(4-((2-oxo-3-vinyl-1,5,7,8-tetrahydro-2H-pyrano[4,3-b]pyridin-7-yl)methyl)piperazin-1-yl)picolinamide] | – | > 1000 nM | > 1000 nM | ≤ 50 nM | Conclusion: Compounds 2, 6, 45, 62, 67, 74, 83, 87, etc., of the present disclosure exhibited relatively weak inhibitory effects on the hERG potassium ion channel. | 4.18% | – |
| CCc1cc2c([nH]c1=O)CC(CN1CC=C(c3ccc(C(=O)NC)nc3F)CC1)OC2 (stereo not shown) [Compound 6, 1'-((3-Ethyl-2-oxo-1,5,7,8-tetrahydro-2H-pyrano[4,3-b]pyridin-7-yl)methyl)-2-fluoro -N-methyl-1',2',3',6'-tetrahydro-[3,4'-bipyridine]-6-carbo xamide] | 1 nM | > 1000 nM | – | ≤ 50 nM | Conclusion: Compounds 2, 6, 45, 62, 67, 74, 83, 87, etc., of the present disclosure exhibited relatively weak inhibitory effects on the hERG potassium ion channel. | 7.97% | – |
| Cc1cc2c([nH]c1=O)CC(CN1CCN(c3ccc(C(=O)Nc4cnn(C)c4)nc3F)CC1)OC2 (stereo not shown) [Example 77, 6-Fluoro-N-(1-methyl-1H-pyrazol-4-yl)-5-(4-((3-methyl-2-oxo-1,5,7,8-tetrahydro-2H-pyrano[4,3-b]pyridin-7-yl)methyl)piperazin-1-yl)picolinamide] | 3.9 nM | > 1000 nM | 307 nM | ≤ 50 nM | – | – | – |
| CNC(=O)c1ccc(C2=CCN(CC3Cc4[nH]c(=O)c(C5CC5)cc4CO3)CC2)c(F)n1 (stereo not shown) [Example 51, 1'-((3-Cyclopropyl-2-oxo-1,5,7,8-tetrahydro-2H-pyrano[4,3-b]pyridin-7-yl)methyl)-2-fluoro-N-methyl-1',2',3',6'-tetrahydro-[3,4'-bipyridine]-6-carboxamide] | 160 nM | > 1000 nM | > 1000 nM | 50 to 500 nM | – | – | CL [5]: 0.17 mL/min/kg; Vdss [5]: 0.04 L/kg; AUC(0-t) ([5]; male, mouse, plasma): 96800 ng·h/mL; Cmax ([5]; male, mouse, plasma): 6280 ng/mL; half-life ([5]; male, mouse, plasma): 15.9 h; concentration at 0.25 h [6, 8]: 53 ng/g; concentration at 2 h [6, 8]: 25 ng/g; concentration at 0.25 h ([6]; plasma, read-out: Plasma): 41900 ng/mL; concentration at 2 h ([6]; plasma, read-out: Plasma): 21700 ng/mL |
| [2H]C([2H])([C@H]1CCc2nc(C)c(=O)[nH]c2C1)N1CCN(c2ccc(C(=O)NC)nc2F)CC1 [Example 83, (S)-6-Fluoro-N-methyl-5-(4-((2-methyl-3-oxo-3,4,5,6,7,8-hexahydroquinoxalin-6-yl)methyl-d 2)piperazin-1-yl)picolinamide] | – | > 1000 nM | – | – | Conclusion: Compounds 2, 6, 45, 62, 67, 74, 83, 87, etc., of the present disclosure exhibited relatively weak inhibitory effects on the hERG potassium ion channel. | 0.92% | concentration at 0.25 h [6, 8]: 86 ng/g; concentration at 2 h [6, 8]: 0 ng/g; concentration at 0.25 h ([6]; plasma, read-out: Plasma): 1500 ng/mL; concentration at 2 h ([6]; plasma, read-out: Plasma): 28 ng/mL |
| [2H]C([2H])([C@H]1CCc2nc(C)c(=O)[nH]c2C1)N1CCN(c2ccc(C(=O)NC)nc2Cl)CC1 [Example 85, (S)-6-Chloro-N-methyl-5-(4-((2-methyl-3-oxo-3,4,5,6,7,8-hexahydroquinoxalin-6-yl)methyl-d2)piperazin-1-yl)picolinamide] | 7 nM | > 1000 nM | > 1000 nM | ≤ 50 nM | – | – | – |
| O=C(c1cc(Cc2n[nH]c(=O)c3ccccc23)ccc1F)N1CCN(C(=O)C2CC2)CC1 [Olaparib, reference compound] | – | – | 200 nM | – | – | – | tumor growth inhibition rate [7]: 65.81% |
| Cc1nc2c([nH]c1=O)C[C@@H](CN1CCN(c3ccc(C(=O)NC4CC4)nc3F)CC1)CC2 [Example 81, (S)-N-Cyclopropyl-6-fluoro-5-(4-((2-methyl-3-oxo-3,4,5,6,7,8-hexahydroquinoxalin-6-yl)methyl)piperazin-1-yl)picolinamide] | 4.1 nM | > 1000 nM | > 1000 nM | ≤ 50 nM | – | – | – |
| Cc1cc2c([nH]c1=O)CC(CN1CCN(c3ccc(C(=O)NC4CC4)nc3Cl)CC1)OC2 (stereo not shown) [Example 62, 6-Chloro-N-cyclopropyl-5-(4-((3-methyl-2-oxo-1,5,7,8-tetrahydro-2H-pyrano[4,3-b]pyridin-7-yl)methyl)piperazin-1-yl)picolinamide] | 3.5 nM | > 1000 nM | – | ≤ 50 nM | Conclusion: Compounds 2, 6, 45, 62, 67, 74, 83, 87, etc., of the present disclosure exhibited relatively weak inhibitory effects on the hERG potassium ion channel. | 49.8% | – |
| CNC(=O)c1ccc(N2CCN(CC3Cc4[nH]c(=O)c(SC)cc4CO3)CC2)c(C)n1 (stereo not shown) [Example 87, N,6-Dimethyl-5-(4-((3-(methylthio)-2-oxo-1,5,7,8-tetrahydro-2H-pyrano[4,3-b]pyridin-7-yl)methyl)piperazin-1-yl)picolinamide] | 8.5 nM | > 1000 nM | – | ≤ 50 nM | Conclusion: Compounds 2, 6, 45, 62, 67, 74, 83, 87, etc., of the present disclosure exhibited relatively weak inhibitory effects on the hERG potassium ion channel. | 7.34% | – |
